Key:
[1] = in water; cited from earlier work
[2] = silver benzoate combined with solvent DMAEMA; FIG. 1
Excerpt: FIG. 9 compares the resin compositions of FIG. 7 (A) with the color profiles of various resin compositions prepared with the silver benzoate/DMAEMA mixture added to the base resin before mixing with the catalyst resin to polymerize and cured by either light-curing or self-curing (B).

SMILES	water solubility [1]	change in color over time [2]
C=C(C)C(=O)OC [methyl methacrylate (MMA), methyl methacrylate]	about 1.6 g in 100 g of water	
O=C([O-])c1ccccc1.[Ag+] [silver benzoate]		become darker over time

From patent US10251398B2, “Improving shelf life and color profile of resin compositions with silver nanoparticles” (priority 2013, dated 2019)
